# Measured values published in patent US20240383922A1, “KRAS Modulating Compounds” (Gilead Sciences, Inc., priority 2023, published 2024).
# Where two headings read alike, the source gives them in different places.
# Key:
# [1] = test system: cellular pERK in ASPC-1 (KRAS G12D) cell-line; test: Cell based pERK assay (HTRF), ASPC-1; details: ASPC-1 (KRAS G12D) cells, 2 hours incubation
# Method: (§1) Compounds were tested in a 384-well assay format for their ability to inhibit cellular pERK in Kuramochi (WT KRAS), MIA-PaCa-2 (KRAS-G12C), ASPC-1 (KRAS G12D), and NCI-H441 (KRAS-G12V) cell-lines. Compounds were serially diluted (1:3) in DMSO. On day −1, 80 uL of cells were plated per well in the 384 well tissue-culture plates (Greiner: Cat #781080) to seed 5000 cells per wells of AsPC-1 or 7500 cells of MIA-PaCa-2, NCI-H441, and Kuramochi cell lines in RPMI (Corning: Cat #10-040-CM) with 10% fetal bovine serum (FBS) (HyClone: Cat #SH30071-03) and 1× penicillin-streptomycin-glutamate (PSG) (Corning: Cat #30-009-CI) for […] and Kuramochi cell lines and DMEM (Corning: Cat #15-018-CM) with […] and 1× PSG for MKA-PaCa-2 cell line. The plates were then incubated overnight at 37° C. and 5% CO2. On day 0, 400 nL of compound/well was added into the cell plates and mixed 5 times by pipetting using a Beckmann Biomek FX. The cell plates were then incubated for 2 hours at 37° C. and 5% CO2. HTRF Advanced Phospho-ERK1/2 ([…]) Detection Kits (PerkinElmer: Cat #64AERPEG) were used to prepare the lysis and detection solution according to manufacturer protocol. Following the 2 hour incubation, 70 μL of medium was aspirated from the plates and 10 uL of lysis and detection solution was added to the plates using a Biotek EL406 washer and dispenser. Plates were sealed and stored overnight at room temperature. HTRF ratio (665 nm/615 nm) was read by Envision multimode reader (PerkinElmer) the next day. The TR-FRET ratios were normalized to a positive (saturating concentration of known inhibitor) and negative (DMSO) control and plotted against the log of compound concentration. IC50 values were defined as the compound concentration that causes a […] in normalized signal and were calculated using a sigmoidal dose-response model to generate curve fits.
# [2] = test system: cellular pERK in NCI-H441 (KRAS-G12V) cell-line; test: Cell based pERK assay (HTRF), NCI-H441; details: NCI-H441 (KRAS-G12V) cells, 2 hours incubation
# Method: as §1
# [3] = test system: cellular pERK in Kuramochi (WT KRAS) cell-line; test: Cell based pERK assay (HTRF), Kuramochi; details: Kuramochi (WT KRAS) cells, 2 hours incubation
# Method: as §1
# [4] = test system: cellular pERK in MIA-PaCa-2 (KRAS-G12C) cell-line; test: Cell based pERK assay (HTRF), MIA-PaCa-2; details: MIA-PaCa-2 (KRAS-G12C) cells, 2 hours incubation, read-out: MIAPaCa2 pERK EC50
# Method: as §1
"EC50 ([1]; Homo sapiens, ASPC1) [nM]",EC50 ([2]; Homo sapiens) [nM],EC50 [3] [nM],EC50 ([4]; Homo sapiens) [nM],EC50 ([1]; read-out: AsPC1 pERK EC50) [nM],EC50 [2] [nM],EC50 [4] [nM],Structure (SMILES)
54.9,16.9,7.23,9.04,,,,C#Cc1c(F)ccc2cc(N)cc(-c3nc4c5c(nc(OC[C@@]67CCCN6C[C@H](F)C7)nc5c3F)N3CCCOC[C@@H]3C[C@H]4C)c12 [Example 7-9]
> 697,> 535,208,218,,,,C#Cc1c(F)ccc2cc(N)cc(-c3nc4c5c(nc(OC[C@@]67CCCN6C[C@H](F)C7)nc5c3F)N3CCCOC[C@@H]3C[C@@H]4C)c12 [Example 7-10]
,,3.19,,42.4,13,7.72,"CCc1c(F)ccc2cc(O)cc(-c3nc4c5c(nc(OC[C@@]67CCCN6C[C@H](F)C7)nc5c3F)N3CCOCCC3CC4)c12 (stereo partly drawn) [Example 8-1, 5-ethyl-6-fluoro-4-(1-fluoro-12-(((2R,7a5)-2-fluorotetrahydro-1H-pyrrolizin-7a(5H)-yl)methoxy)-5,5a,6,7,9,10-hexahydro-4H-8-oxa-3,10a,11,13-tetraazanaphtho[1,8-ab]heptalen-2-yl)naphthalen-2-ol]"
23.6,21,8.04,13.8,,,,CCc1c(F)ccc2cc(O)cc(-c3nc4c5c(nc(OC[C@@]67CCCN6C[C@H](F)C7)nc5c3F)N3CCCOCC3CC4)c12 (stereo partly shown) [Example 8-2]
9.88,3.8,1.91,1.57,,,,CCc1c(F)ccc2cc(O)cc(-c3nc4c5c(nc(OC[C@@]67CCCN6C[C@H](F)C7)nc5c3F)N3CCCOC[C@@H]3CC4)c12 [Example 8-3]
931,916,401,682,,,,"C#Cc1c(F)ccc2cc(O)cc(-c3nc4c5c(nc(OC[C@@]67CCCN6C[C@H](F)C7)nc5c3F)N3CCCCC[C@H]3CC4)c12 [Example 12-1, 5-ethynyl-6-fluoro-4-((S)-1-fluoro-12-(((2R,7aS)-2-fluorotetrahydro-1H-pyrrolizin-7a(5H)-yl)methoxy)-4,5,5a,6,7,8,9,10-octahydro-3,10a,11,13-tetraazanaphtho[1,8-ab]heptalen-2-yl)naphthalen-2-ol]"
,,117,,> 1000,380,319,"C#Cc1c(F)ccc2cc(O)cc(-c3nc4c5c(nc(OC[C@@]67CCCN6C[C@H](F)C7)nc5c3F)N3CCCCC3(C)CC4)c12 (stereo partly drawn) [Example 13-1, 5-ethynyl-6-fluoro-4-(1-fluoro-11-(((2R,7aS)-2-fluorotetrahydro-11H-pyrrolizin-7a(5H)-yl)methoxy)-5a-methyl-5,5a,6,7,8,9-hexahydro-4H-3,9a,10,12-tetraazabenzo[4,5]cyclohepta[1,2,3-de]naphthalen-2-yl)naphthalen-2-ol]"
,,517,,> 1000,> 1000,> 1000,"CCc1c(F)ccc2cc(O)cc(-c3nc4c5c(nc(OC[C@@]67CCCN6C[C@H](F)C7)nc5c3F)N3CCCCC3(C)CC4)c12 (stereo partly drawn) [Example 14-1, 5-ethyl-6-fluoro-4-(1-fluoro-11-(((2R,7aS)-2-fluorotetrahydro-1H-pyrrolizin-7a(5H)-yl)methoxy)-5a-methyl-5,5a,6,7,8,9-hexahydro-4H-3,9a,10,12-tetraazabenzo[4,5]cyclohepta[1,2,3-de]naphthalen-2-yl)naphthalen-2-ol]"
14,12.7,5.23,2.76,,,,C#Cc1c(F)ccc2cccc(-c3nc4c5c(nc(OC[C@@]67CCCN6[C@H](COC(=O)NCC)CC7)nc5c3F)N3CCCOC[C@@H]3CC4)c12 [Example 16-3]
> 1000,> 1000,582,> 1000,,,,"Oc1cc(-c2nc3c4c(nc(OC[C@@]56CCCN5C[C@H](F)C6)nc4c2F)N2CCCOC[C@@H]2CC3)c2c(Cl)cccc2c1 [Example 19-1, 5-chloro-4-((S)-1-fluoro-12-(((2R,7aS)-2-fluorotetrahydro-1H-pyrrolizin-7a(5H)-yl)methoxy)-4,5,5a,6,9,10-hexahydro-8H-7-oxa-3,10a,11,13-tetraazanaphtho[1,8-ab]heptalen-2-yl)naphthalen-2-ol]"
42.5,42.3,6.34,8.73,,,,"C#Cc1c(F)ccc2cc(O)cc(-c3nc4c5c(nc(OC[C@@]67CCCN6C[C@H](F)C7)nc5c3F)N3CCCCC[C@@H]3CC4)c12 [Example 20-1, 5-ethynyl-6-fluoro-4-((R)-1-fluoro-12-(((2R,7aS)-2-fluorotetrahydro-1H-pyrrolizin-7a(5H)-yl)methoxy)-4,5,5a,6,7,8,9,10-octahydro-3,10a,11,13-tetraazanaphtho[1,8-ab]heptalen-2-yl)naphthalen-2-ol]"
92.1,54.8,8.15,102,,,,"C#Cc1c(F)ccc2cc(O)cc(-c3nc4c5c(nc(OC[C@@]67CCCN6C[C@@H](F)C7)nc5c3F)N3CCCOC[C@@H]3CC4)c12 [Example 22-1, 5-ethynyl-6-fluoro-4-((S)-1-fluoro-12-(((2S,7aS)-2-fluorotetrahydro-1H-pyrrolizin-7a(5H)-yl)methoxy)-4,5,5a,6,9,10-hexahydro-8H-7-oxa-3,10a,11,13-tetraazanaphtho[1,8-ab]heptalen-2-yl)naphthalen-2-ol]"
1.49,1.06,1.63,0.18,,,,C#Cc1c(F)ccc2cc(O)cc(-c3nc4c5c(nc(OC[C@@]67CCCN6CC(=C)C7)nc5c3F)N3CCCOCC3CC4)c12 (stereo partly shown) [Example 22-2]
3.75,1.17,2.55,0.47,,,,C#Cc1c(F)ccc2cc(O)cc(-c3nc4c5c(nc(OC[C@@]67CCCN6C[C@@]6(CC6(F)F)C7)nc5c3F)N3CCCOC[C@@H]3CC4)c12 [Example 22-3]
128,212,79.7,70,,,,C#Cc1c(F)ccc2cc(O)cc(-c3nc4c5c(nc(OC[C@@]67CCCN6C[C@H](F)C7)nc5c3F)N3CCCOCC3C[C@@H]4O)c12 (stereo partly shown) [Example 22-5]
97.1,58.7,28.8,17.4,,,,C#Cc1c(F)ccc2cc(O)cc(-c3nc4c5c(nc(OC[C@@]67CCCN6C[C@H](F)C7)nc5c3F)N3CCCOCC3C[C@H]4F)c12 (stereo partly shown) [Example 22-6]
14.4,3.13,0.95,8.03,,,,"C#Cc1c(F)c(F)cc2cc(N)cc(-c3nc4c5c(nc(OC[C@@]67CCCN6C[C@H](F)C7)nc5c3F)N3CCCOC[C@@H]3CC4)c12 [Example 23-1, 5-ethynyl-6,7-difluoro-4-((S)-1-fluoro-12-(((2R,7aS)-2-fluorotetrahydro-1H-pyrrolizin-7a(5H)-yl)methoxy)-4,5,5a,6,9,10-hexahydro-8H-7-oxa-3,10a,11,13-tetraazanaphtho[1,8-ab]heptalen-2-yl)naphthalen-2-amine]"
5.33,1.67,1.37,0.87,,,,C#Cc1c(F)c(F)cc2cc(N)cc(-c3nc4c5c(nc(OC[C@@]67CCCN6C/C(=C\F)C7)nc5c3F)N3CCCOC[C@@H]3CC4)c12 [Example 23-2]
105,75.9,7.54,20.3,,,,C#Cc1c(F)c(F)cc2cc(N)cc(-c3nc4c5c(nc(OCC67CCCN6CCC7)nc5c3F)N3CCCOC[C@@H]3CC4)c12 [Example 23-3]
